From a melting point compilation (Tetko et al.; mined from patent text by program, amines drawn as free bases though some values may be those of a salt)

Row | SMILES | melting point [°C]
1 | O=C(O)c1ncn2c1[C@@H]1CCN1C(=O)c1c(Br)cccc1-2 | 178 to 180
2 | Cc1ccc(-c2nn(CCO)c(=O)c(-c3ccccc3)c2-c2ccc(C)cc2)cc1 | 192 to 194
3 | Cn1nc(-c2ccc(C#N)cc2)cc(C(=O)N[C@H]2CC[C@H](C(=O)O)CC2)c1=O | 283 to 286
4 | CC(C)n1cc(-c2ccc3nnn(Cc4ccc5ncccc5c4)c3n2)cn1 | 126 to 128
5 | CCS(=O)(=O)N=CNCc1nc(-c2csc(N=C(N)N)n2)cs1 | 216 to 217
6 | CC(O)(CCCl)c1ccc(-c2ccc(F)cc2)cc1 (configuration not stated) | 78 to 79
7 | Clc1ccc(N2C3CCC2CN(Cc2ccccc2)C3)cc1 | 115 to 117
8 | CCCn1c(=O)c2nc(C(CC)c3ccc(OCC(=O)NCCN)cc3)[nH]c2n(CCC)c1=O (configuration not stated) | 139 to 140
9 | C[C@H](Cc1ccc2c(c1)cc(C(=O)O)n2Cc1ccccc1)NC[C@H](O)c1cccc(Cl)c1 | 128 to 130
10 | COC(=O)C1=C(C)NC(C)=C(C(=O)OC)C1c1ccc(OCC(=O)NCCO[N+](=O)[O-])c(OC)c1 | 149 to 150
11 | CC(NC(=O)C(O)c1cc(F)cc(F)c1)C(=O)NC1C(=O)N(C)c2ccccc2N(c2ccccc2)C1=O (configuration not stated) | 212 to 213
12 | O=C(O)CCCS(=O)(=O)c1ccccc1 | 94 to 95
13 | CS(=O)(=O)Nc1cc(C(O)CNCCCCCCOCCCc2ccc(Cl)s2)ccc1O (configuration not stated) | 85 to 87
14 | CS(=O)(=O)OCCc1ccc(OCc2ccccc2)cc1 | 48 to 50
15 | COc1cc(OC)c(C2=NC(NC(=O)c3cc4ccccc4[nH]3)C(=O)N(C)c3ccccc32)c(OC)c1 (configuration not stated) | 297
16 | Cc1nc(O)c(C(=O)O)cc1Cl | 291 to 294
17 | COC1=C(OC)C(=O)C2=C(CCC(CCOc3ccc(C)cc3)CC2)C1=O | 56 to 57
18 | OC1CCc2c(-c3cccs3)cccc21 (configuration not stated) | 101 to 104
19 | Cn1nc(C(=O)NCc2ccc(Cl)cc2)c(=O)c2cc(I)cnc21 | 207 to 208

Row | SMILES | melting point [°C]
20 | CCNC(C)Cc1ccc(O)cn1 (configuration not stated) | 75 to 79
21 | COC(CN(C)C(=O)Nc1nnc(C(C)Oc2ccccc2)s1)OC (configuration not stated) | 117 to 121
22 | CCN(CC)CCC(=O)Nc1cccc2c1C(=O)c1c(NC(=O)CCN(CC)CC)cccc1C2=O | 166 to 167
23 | CCOC(=O)c1ncoc1-c1cnc(Cl)c(Cl)c1 | 95 to 98
24 | O=C(O)Cc1c(C(=O)c2ccc(Cl)cc2)[nH]c2ccc(Cl)cc12 | 220 to 224
25 | O=c1c(Br)cc(Cl)cn1Cc1ccccc1 | 108 to 110
26 | CCOC(=O)c1ccc(/C=C/c2ccc(O)c(C3(C)CCCCC3)c2)cc1 | 149
27 | CC(C)c1c(C=CC2CC(O)CC(O)O2)n(C2CCCCC2)c(=O)c2ccccc12 (mixture of isomers) | 141 to 142
28 | Cn1nc(O[C@@H]2c3cc(C(F)(F)C(F)(F)F)ccc3OC(CF)(CF)[C@H]2O)ccc1=O (relative stereo) | 189 to 191
29 | NC(=S)N1CCN(C=O)CC1 | 118
30 | O=C(O)Cc1ccc2c(c1)Cc1ccccc1-2 | 184 to 186
31 | CC(CCCN(C)C)C1CC(=O)C2=C3CCC4CC(O)CCC4(C)C3CCC21C (configuration not stated) | 160 to 162
32 | N=C(N)NC(=O)c1cn(-c2ccc3ccccc3n2)c2ncccc12 | 242
33 | O=C(O)c1cc(F)c(N2CCNCC2)nc1Nc1ccc(F)cc1F | 279 to 281
34 | Cc1cc(C)c(-c2nc(Cl)nc(Cl)n2)c(C)c1 | 85 to 91
35 | Cc1ccc(-n2c(-c3ccccc3)c(Br)c(Br)c2-c2ccccc2)cc1 | 227 to 228
36 | O=C(O)c1cn(C2CC2)c2c(F)c(N3CC4CCC3CN4)c(F)cc2c1=O (configuration not stated) | 275 to 280
37 | Cc1c(C(C)O)cc(C(C)C)c(-c2ccc(O)cc2)c1Cl (configuration not stated) | 220 to 222
38 | CCC1(C)CCCC(C)(C)N1OC(C)(C)C#N (configuration not stated) | 41 to 52

The next lines start with the values.

Row | melting point [°C] | SMILES
39 | 174 to 176 | O=[N+]([O-])CS(=O)c1cccc2c1oc1ccccc12 (configuration not stated)
40 | 110 to 112 | CN(CCCN=C(NC#N)NCCSCc1csc(NC(=N)N)n1)CCC(c1ccccc1)c1ccccn1 (configuration not stated)
41 | 122 | CO/N=C(/C(N)=O)c1ccccc1COc1cc(C)ccc1C
42 | 110 to 111 | CCOC(=O)CCc1cnc2c(NC(=O)c3c(Cl)cccc3Cl)cccc2c1
43 | 264 to 266 | COC(=O)c1nc2n(n1)-c1cc(Cl)ccc1N(c1ccc(Cl)cc1Cl)C2
44 | 152 to 153 | CC1CC(C)OP(=O)(Cc2ccc([N+](=O)[O-])cc2)O1 (configuration not stated)
45 | 99.5 to 100 | CC(C)c1nc(CCOC2=CCC(C(C)(C)C)CC2)n(C)c1Sc1cc(Cl)cc(Cl)c1 (configuration not stated)
46 | 76 to 78 | COc1ccc(C(=O)c2ccc(CBr)cc2)cc1
47 | 285 to 287 | CC(=O)c1ccc2c3c1ccn3C(=O)CNC2
48 | 131 to 132 | CC(=O)CSC1C2=C(CCCC2)C(=O)N1c1ccc(Cl)cc1F (configuration not stated)
49 | 148 | CC1(C)CC(=O)SC(=NCCCCN2CCN(c3ncccn3)CC2)N1
50 | 175 to 177 | CC(Oc1ncn(-c2ccc(C(F)(F)F)cc2)n1)C(=O)NC1CC1 (configuration not stated)
51 | 160 to 162 | Cc1cc(C(O)(CNC(=O)c2ccc(Cl)cc2)C(F)(F)F)ccc1NC(=O)OC(C)(C)C (configuration not stated)
52 | 132 to 134 | COC(=O)c1ccc(S(=O)(=O)Cc2c(O)ccc3c2CCCC3=O)cc1
53 | 48 to 50 | OCC[C@@H]1CCCC[C@@H]1c1ccccc1 (relative stereo)
54 | 174 to 176 | O=C(NCC(=O)N1c2ccccc2N(Cc2ccccc2)C(=O)[C@H]2CCC[C@H]21)c1ccc2c(c1)OCO2 (relative stereo)
55 | 151 to 152 | COC(=O)c1cccc(I)c1C(=O)NC(C)(C)CS(C)=O (configuration not stated)

Row | melting point [°C] | SMILES
56 | 140 | CCOC(=O)Nc1coc2cc(OCc3ccccc3)ccc12
57 | 106 to 108 | COc1ccc(C=Cc2ccc(CBr)c(Cl)c2)c(Cl)c1
58 | 191 to 193 | O=C1Cc2ccccc2C12COc1cc3c(cc12)OCC(Cc1ccccc1C(F)F)O3 (configuration not stated)
59 | 169 to 171 | CCN1C(=O)c2ccc(N)cc2C1=O
60 | 186 to 190 | Oc1ccc2c(-c3ccc(F)cc3F)noc2c1Cl
61 | 234 to 236 | O=C(Nc1ccc(CCc2ccc(Cl)c(Cl)c2)cc1)C1CSc2ccccc2C1=O (configuration not stated)
62 | 117 to 119 | COc1cc2c(c(C(C)C)c1OC)C(=O)N(CCl)S2(=O)=O
63 | 103 to 106 | CCOCC1COc2ccc(N)cc2O1 (configuration not stated)
64 | 65 | OCc1ccc(OCCCCl)cc1
65 | 188 to 192 | CC(C)(C)c1ccc(C=CC2=CC(c3ccc(C(C)(C)C)cc3)N(c3ccccc3)N2)cc1 (configuration not stated)
66 | 150 | O=C(NCC1CCN(CC2(C(=O)O)CCC2)CC1)N1C(=O)C2(CCCC2)c2ccc(F)cc21
67 | 163 to 167 | CC(C)c1cc([N+](=O)[O-])cc(C(C)C)c1OS(N)(=O)=O
68 | 70.5 to 72.5 | CCCCCCCCCCCCNC(=O)c1cc(Br)c(OCCn2ccnn2)c(-c2cccc(C(F)(F)F)c2)c1
69 | 72 | Brc1cn2c(Br)cnc2c(N2CCCCC2)n1
70 | 119 to 121 | CN(C)CC(=O)Nc1ccccc1N
71 | 265 to 268 | CCC(=O)Nc1cccc(-c2ccc3nnc(C)n3n2)c1
72 | 227 to 229 | CC(=O)Nc1cc(O)ccc1/C=C/c1ccc(O)cc1
